Reference: the NIST ThermoML archive (doi:10.1021/acs.jced.8b01120)

Assay: xn = mol fraction of the nth substance listed
Settings: 100 kPa, Liquid; for speed of sound: Single path-length method; for mass density: Vibrating tube method

CCCCN(CCCC)CCCC [tributylamine] + CCCOC(C)=O
Settings	mass density, 293.15 K [kg/m3]	mass density, 298.15 K [kg/m3]	mass density, 303.15 K [kg/m3]	mass density, 308.15 K [kg/m3]	mass density, 313.15 K [kg/m3]	speed of sound, 293.15 K [m/s]	speed of sound, 298.15 K [m/s]	speed of sound, 303.15 K [m/s]	speed of sound, 308.15 K [m/s]	speed of sound, 313.15 K [m/s]
x1 = 0.0509	876.475	871.105	865.344	859.857	854.206	1193.8	1167.9	1148.6	1127.2	1105.2
x1 = 0.1204	861.989	856.798	851.275	845.985	840.603	1198.3	1173.2	1154.3	1132.9	1111.2
x1 = 0.2066	846.28	841.395	836.192	831.184	826.095	1205.3	1180.5	1161.6	1140.7	1119.1
x1 = 0.306	831.793	827.121	822.274	817.519	812.694	1212	1188.5	1169.1	1148.2	1127.6
x1 = 0.4043	819.864	815.394	810.785	806.239	801.63	1219.3	1196.3	1177	1156.6	1136
x1 = 0.5015	809.872	805.603	801.221	796.775	792.345	1226.3	1204.6	1185.2	1165.4	1144.9
x1 = 0.6007	801.215	797.082	792.841	788.618	784.342	1233.2	1212.4	1192.9	1172.6	1153.4
x1 = 0.7102	793.047	789.025	784.905	780.824	776.694	1241.2	1221.4	1201.8	1182.1	1162.6
x1 = 0.8007	787.307	783.381	779.377	775.39	771.367	1248.5	1228.5	1209.3	1190	1171.2
x1 = 0.9008	781.809	777.98	774.088	770.204	766.273	1255.7	1236.5	1217.8	1197.9	1179.1
x1 = 1	777.006	773.283	769.552	765.811	762.061	1264.2	1245.2	1226.2	1207.4	1188.8

CCCCN(CCCC)CCCC [tributylamine] + CCOC(C)=O
Settings	mass density, 293.15 K [kg/m3]	mass density, 298.15 K [kg/m3]	mass density, 303.15 K [kg/m3]	mass density, 308.15 K [kg/m3]	mass density, 313.15 K [kg/m3]	speed of sound, 293.15 K [m/s]	speed of sound, 298.15 K [m/s]	speed of sound, 303.15 K [m/s]	speed of sound, 308.15 K [m/s]	speed of sound, 313.15 K [m/s]
x1 = 0.0502	886.034	880.238	874.248	868.137	862.077	1168.6	1146.5	1124.6	1102.3	1080.9
x1 = 0.104	872.134	866.571	860.881	854.773	848.939	1172.6	1152.6	1129.9	1108.7	1088.3
x1 = 0.2041	850.473	845.352	840.168	834.885	829.51	1182.8	1162.8	1140.7	1119.9	1098.8
x1 = 0.3022	834.126	829.336	824.418	819.471	814.442	1193.2	1172.8	1151.3	1131.6	1109.3
x1 = 0.402	820.855	816.274	811.568	806.892	802.143	1203.3	1182.8	1161.7	1141.7	1120.9
x1 = 0.5017	810.036	805.655	801.215	796.734	792.21	1213.4	1194	1172.7	1152.9	1132.9
x1 = 0.6003	801.163	796.948	792.639	788.358	784.016	1223	1203.8	1182.3	1163.6	1143.3
x1 = 0.7004	793.656	789.584	785.465	781.294	777.107	1233.6	1214.6	1193.2	1174.6	1154.3
x1 = 0.8009	787.308	783.362	779.404	775.399	771.342	1244	1224.7	1205.4	1185.6	1166.1
x1 = 0.9011	781.785	777.942	774.089	770.192	766.343	1253.8	1234.6	1215.4	1196.5	1177.7
x1 = 1	777.006	773.283	769.552	765.811	762.061	1264.2	1245.2	1226.2	1207.4	1188.8

CCCCN(CCCC)CCCC [tributylamine] + COC(C)=O
Settings	mass density, 293.15 K [kg/m3]	mass density, 298.15 K [kg/m3]	mass density, 303.15 K [kg/m3]	mass density, 308.15 K [kg/m3]	mass density, 313.15 K [kg/m3]	speed of sound, 293.15 K [m/s]	speed of sound, 298.15 K [m/s]	speed of sound, 303.15 K [m/s]	speed of sound, 308.15 K [m/s]	speed of sound, 313.15 K [m/s]
x1 = 0.0501	913.106	906.572	900.184	893.938	887.487	1184.6	1160.4	1140	1113.4	1094.9
x1 = 0.1009	893.96	887.924	881.943	875.744	869.547	1188.9	1165.2	1144.5	1118	1099.6
x1 = 0.2003	864.36	858.987	853.583	848.346	842.744	1197.3	1174.1	1153.7	1128.1	1109.7
x1 = 0.2941	843.967	838.976	833.982	828.97	823.819	1205.6	1182.6	1161	1137.7	1118.6
x1 = 0.4009	826.428	821.765	817.081	812.409	807.525	1213.9	1191.9	1171.2	1148.1	1129.6
x1 = 0.5004	813.696	809.242	804.881	800.355	795.747	1222.5	1200.4	1180.6	1158.4	1138.9
x1 = 0.6008	803.345	799.107	794.831	790.504	786.225	1230.4	1209.5	1190.4	1167.9	1149.1
x1 = 0.7008	794.987	790.893	786.764	782.571	778.432	1239	1218.5	1198.7	1177.6	1159
x1 = 0.8004	788.147	784.162	780.197	776.154	772.052	1247.6	1227	1207.9	1187.8	1168.5
x1 = 0.9003	782.234	778.353	774.459	770.516	766.597	1255.7	1236.1	1217	1197.3	1177.8
x1 = 1	777.01	773.283	769.55	765.81	762.06	1264.2	1245.2	1226.2	1207.4	1188.8
